# Assay results taken from ChEMBL document CHEMBL2407033, “Pin1 inhibitors: Pitfalls, progress and cellular pharmacology” (Bioorg Med Chem Lett, 2013).
# Where a SMILES comes first, the peptide text is derived from it. Bridges are numbered along the chain shown (N, C = ends).
# Experiments:
# [1] = target: T1, Peptidyl-prolyl cis-trans isomerase NIMA-interacting 1 (Homo sapiens, UniProt Q13526); experiment: Inhibition of GST-tagged Pin1 (unknown origin) using Suc-AEPF-pNA and WFYpSPR-pNA as substrate after 5 mins
# [2] = Growth inhibition of human […] cells; format: functional
# [3] = target: T1, Peptidyl-prolyl cis-trans isomerase NIMA-interacting 1; experiment: Inhibition of Pin1 (unknown origin) using Suc-Ala-Glu-cis-Pro-Phe-pNA as substrate
# [4] = target: T1, Peptidyl-prolyl cis-trans isomerase NIMA-interacting 1; experiment: Inhibition of Pin1 (unknown origin)
# [5] = target: T1, Peptidyl-prolyl cis-trans isomerase NIMA-interacting 1; experiment: Reversible inhibition of human Pin1
# [6] = target: T1, Peptidyl-prolyl cis-trans isomerase NIMA-interacting 1; experiment: Inhibition of Pin1 (unknown origin) using Suc-Ala-Glu-Pro-Phe-MCA as substrate after 120 secs by fluorescence microtiter plate reader analysis
# [7] = target: Peptidyl-prolyl cis-trans isomerase NIMA-interacting 4 (Homo sapiens, UniProt Q9Y237); experiment: Inhibition of Par14 (unknown origin)
# [8] = target: T1, Peptidyl-prolyl cis-trans isomerase NIMA-interacting 1; experiment: Inhibition of Pin1 in human MCF7 cells assessed as inhibition of etoposide-induced p53 transcription at 30 uM by luciferase reporter gene assay relative to control; format: cell-based
# [9] = target: T1, Peptidyl-prolyl cis-trans isomerase NIMA-interacting 1; experiment: Inhibition of human Pin1
# [10] = target: T1, Peptidyl-prolyl cis-trans isomerase NIMA-interacting 1; experiment: Binding affinity to GST-tagged Pin1 (unknown origin) by SPR spectroscopic analysis
# [11] = target: T1, Peptidyl-prolyl cis-trans isomerase NIMA-interacting 1; experiment: Competitive inhibition of Pin1 (unknown origin) by Lineweaver-Burk plot analysis
# MEF = experiment: Growth inhibition of MEF expressing Pin1; format: functional; details: Mus musculus
# [12] = Growth inhibition of Pin1-deficient MEF; format: cell-based; details: mouse, Pin1-deficient MEF cells
# [13] = target: T1, Peptidyl-prolyl cis-trans isomerase NIMA-interacting 1; experiment: Inhibition of full length Pin1 (unknown origin) using WFY(pS)PR-pNA as substrate by spectrophotometric analysis
# [14] = target: T1, Peptidyl-prolyl cis-trans isomerase NIMA-interacting 1; experiment: Inhibition of Pin1 in human MCF7 cells assessed as inhibition of etoposide-induced p53 transcription at 10 uM by luciferase reporter gene assay relative to control; format: cell-based
# T1 sequence (Q13526 whole entry): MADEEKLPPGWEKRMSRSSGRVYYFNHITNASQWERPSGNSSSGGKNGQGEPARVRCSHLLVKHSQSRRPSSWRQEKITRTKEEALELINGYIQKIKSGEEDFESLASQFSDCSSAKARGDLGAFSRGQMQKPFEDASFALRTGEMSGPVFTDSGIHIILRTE
# Peptidyl-prolyl cis-trans isomerase NIMA-interacting 4, sequence (Q9Y237 whole entry): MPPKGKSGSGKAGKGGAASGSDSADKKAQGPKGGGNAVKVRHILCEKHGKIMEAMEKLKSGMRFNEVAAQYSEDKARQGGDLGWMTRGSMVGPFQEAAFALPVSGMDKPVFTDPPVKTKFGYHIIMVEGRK
smiles,measurement,setting,value
CC[C@H](C)[C@@H]1NC(=O)[C@H](CCC(=O)O)NC(=O)[C@H](C(C)C)NC(=O)[C@H](CCC(=O)O)NC(=O)[C@@H]2CCCN2C(=O)[C@H](Cc2ccc(O)cc2)NC(=O)[C@H](CCCN=C(N)N)NC(=O)[C@@H](N)CSSC[C@@H](C(=O)O)NC1=O [CYCLIC CRYPEVEIC] (H-CRYPEVEIC-OH; disulfide 1-9),IC50,[1],500 nM
CC(=O)N[C@@H](Cc1ccccc1)C(=O)N[C@@H](Cc1ccccc1)C(=O)N[C@H](/C=C1/CCC[C@H]1C(=O)N[C@@H](CCCNC(=N)N)C(N)=O)COP(=O)(O)O,GI50,[2],8000 nM
same,IC50,[3],1500 nM
O=C(N[C@@H](COP(=O)(O)O)CN1CCC[C@H]1C(=O)NCCc1c[nH]c2ccccc12)OCC1c2ccccc2-c2ccccc21,IC50,[4],6000 nM
O=C(c1cc(-c2c(O)c([N+](=O)[O-])cc(F)c2[N+](=O)[O-])cc([N+](=O)[O-])c1O)C1CCc2ccccc21 (racemic),IC50,[5],200 nM
CCOC(=O)CN1C(=O)c2ccc3c4c(ccc(c24)C1=O)C(=O)N(CC(=O)OCC)C3=O,IC50,[6],1500 nM
same,IC50,[7],1500 nM
COc1ccc(F)cc1C(=O)[C@@]1(C)CCc2ccccc21,inhibition,[8],25%
CC(=O)N[C@@H](C)C(=O)N[C@@H](C)C(=O)N[C@H](COP(=O)(O)O)C(=O)N1CCC[C@H]1C(=O)N[C@@H](CCCNC(=N)N)C(=O)Nc1ccc([N+](=O)[O-])cc1,IC50,[5],1000 nM
O=C(N[C@H](Cc1cccc(F)c1)c1nn[nH]n1)c1ccc2ccccc2c1,IC50,[9],4000 nM
CCCCCc1ccc(CCC(=O)N[C@H](Cc2ccc(O)cc2)C(=O)N[C@@H](Cc2ccc(O)cc2)C(=O)N[C@@H](Cc2ccc3ccccc3c2)C(=O)O)cc1,IC50,[9],600 nM
O=c1ccsn1-c1ccc(F)c(Cl)c1,IC50,[10],6100 nM
S=C(SC(=S)N1CCCCC1)N1CCCCC1,IC50,[4],4000 nM
same,Ki,[11],50 nM
O=C(O[C@@H]1Cc2c(O)cc(O)cc2O[C@@H]1c1cc(O)c(O)c(O)c1)c1cc(O)c(O)c(O)c1 [EPIGALOCATECHIN GALLATE],GI50,MEF,7000 nM
same,GI50,[12],14000 nM
same,IC50,[13],20000 nM
O=C(O)C[C@@H](C/C=C/c1cccc(F)c1)NC(=O)c1ccc2ccccc2c1,IC50,[9],890 nM
Cc1oc(-c2ccc(CN)cc2)cc1C(=O)N[C@H](Cc1nc2ccccc2[nH]1)C(=O)O,IC50,[4],25 nM
COc1ccc(F)cc1C(=O)[C@]1(C)CCc2ccccc21,IC50,[4],5600 nM
same,inhibition,[14],> 75%
